Data published in PMC12669040, “Tumour-specific STING agonist synthesis via a two-component prodrug system” (Nature Chemistry, 2025).
Where “and” joins values, the source holds several entries; their conditions need not be identical. Identical values can stand only once.

Experiments:
[1] = Colorimetric alkylation rate constant assay with TNB^2− as non-specific thiol; type: physicochemical; set-up: second-order: unit not given here; conditions: for remaining [B]: in µM
[2] = Colorimetric alkylation rate constant assay with thiol N1; type: physicochemical; conditions: for remaining [A]: N1 from calibration curve (N1 in uM); for remaining [A] / remaining [B]: in µM
[3] = Time 2891 sec, [B]0 = 250, Replicates 1-3
[4] = Time 3071 sec, [B]0 = 250, Replicates 1-3
[5] = Time 3252 sec, [B]0 = 250, Replicates 1-3
[6] = Time 3433 sec, [B]0 = 250, Replicates 1-3
[7] = Time 3613 sec, [B]0 = 250, Replicates 1-3

## COc1cc2sc(C(=O)CCC(=O)O)cc2cc1NC(=O)CCl [Compound E2]
[1]; Replicate 1, 723 sec, [B]0 = 250
  remaining [B]: 243.335
[1]; Replicate 1, 903 sec, [B]0 = 250
  remaining [B]: 243.032
[1]; Replicate 1, 1084 sec, [B]0 = 250
  remaining [B]: 242.818
[1]; Replicate 1, 1265 sec, [B]0 = 250
  remaining [B]: 242.415
[1]; Replicate 1, 1445 sec, [B]0 = 250
  remaining [B]: 242.176
[1]; Replicate 1, 1626 sec, [B]0 = 250
  remaining [B]: 241.949
[1]; Replicate 1, 1806 sec, [B]0 = 250
  remaining [B]: 241.659
[1]; Replicate 1, 1988 sec, [B]0 = 250
  remaining [B]: 241.394
[1]; Replicate 1, 2168 sec, [B]0 = 250
  remaining [B]: 241.004
[1]; Replicate 1, 2349 sec, [B]0 = 250
  remaining [B]: 240.752
[1]; Replicate 1, 2530 sec, [B]0 = 250
  remaining [B]: 240.437
[1]; Replicate 1, 2710 sec, [B]0 = 250
  remaining [B]: 240.323
[1]; Replicate 2, 542 sec, [B]0=250
  remaining [B]: 243.63
[1]; Replicate 2, 723 sec, [B]0=250
  remaining [B]: 243.24
[1]; Replicate 2, 903 sec, [B]0=250
  remaining [B]: 242.962
[1]; Replicate 2, 1084 sec, [B]0=250
  remaining [B]: 242.698
[1]; Replicate 2, 1265 sec, [B]0=250
  remaining [B]: 242.446
[1]; Replicate 2, 1445 sec, [B]0=250
  remaining [B]: 242.169
[1]; Replicate 2, 1626 sec, [B]0=250
  remaining [B]: 241.929
[1]; Replicate 2, 1806 sec, [B]0=250
  remaining [B]: 241.639
[1]; Replicate 2, 1988 sec, [B]0=250
  remaining [B]: 241.4
[1]; Replicate 2, 2168 sec, [B]0=250
  remaining [B]: 241.098
[1]; Replicate 2, 2349 sec, [B]0=250
  remaining [B]: 240.858
[1]; Replicate 2, 2530 sec, [B]0=250
  remaining [B]: 240.593
[1]; Replicate 2, 2710 sec, [B]0=250
  remaining [B]: 240.316
[1]; Replicate 3, 723 sec, [B]0=250
  remaining [B]: 242.314
[1]; Replicate 3, 903 sec, [B]0=250
  remaining [B]: 241.999
[1]; Replicate 3, 1084 sec, [B]0=250
  remaining [B]: 241.659
[1]; Replicate 3, 1265 sec, [B]0=250
  remaining [B]: 241.344
[1]; Replicate 3, 1445 sec, [B]0=250
  remaining [B]: 241.041
[1]; Replicate 3, 1626 sec, [B]0=250
  remaining [B]: 240.789
[1]; Replicate 3, 1806 sec, [B]0=250
  remaining [B]: 240.5
[1]; Replicate 3, 1988 sec, [B]0=250
  remaining [B]: 240.273
[1]; Replicate 3, 2168 sec, [B]0=250
  remaining [B]: 240.008
[1]; Replicate 3, 2349 sec, [B]0=250
  remaining [B]: 239.706
[1]; Replicate 3, 2530 sec, [B]0=250
  remaining [B]: 239.492
[1]; Replicate 3, 2710 sec, [B]0=250
  remaining [B]: 239.164
[1]; [3]
  second-order: 0.0004296 and 0.0004811 and 0.0004316
  remaining [B]: 238.912 and 239.97 and 240.014
[1]; [4]
  second-order: 0.0004407 and 0.0004923 and 0.0004463
  remaining [B]: 238.673 and 239.655 and 239.774
[1]; [5]
  second-order: 0.0004524 and 0.0005067 and 0.0004586
  remaining [B]: 238.37 and 239.391 and 239.522
[1]; [6]
  second-order: 0.0004672 and 0.0005187 and 0.0004692
  remaining [B]: 238.118 and 239.164 and 239.207
[1]; [7]
  second-order: 0.0004772 and 0.0005343 and 0.0004876
  remaining [B]: 237.79
[1]; Time 3794 sec, [B]0 = 250, Replicates 1-3
  second-order: 0.0004927 and 0.000547 and 0.0004971
[1]; Time 3974 sec, [B]0 = 250, Replicates 1-3
  second-order: 0.0005034 and 0.0005579 and 0.0005103
[1]; Time 4155 sec, [B]0 = 250, Replicates 1-3
  second-order: 0.0005154 and 0.0005714 and 0.0005211
[1]; Time 4336 sec, [B]0 = 250, Replicates 1-3
  second-order: 0.0005298 and 0.0005836 and 0.0005397
[1]; Time 4516 sec, [B]0 = 250, Replicates 1-3
  second-order: 0.0005443 and 0.0005965 and 0.0005531
[1]; Time 4697 sec, [B]0 = 250, Replicates 1-3
  second-order: 0.0005528 and 0.0006095 and 0.0005659
[1]; Time 4878 sec, [B]0 = 250, Replicates 1-3
  second-order: 0.0005674 and 0.0006188 and 0.0005756
[1]; Time 5058 sec, [B]0 = 250, Replicates 1-3
  second-order: 0.0005809 and 0.0006349 and 0.000586
[1]; Time 5239 sec, [B]0 = 250, Replicates 1-3
  second-order: 0.0005944 and 0.0006468 and 0.0006002
[1]; Time 5419 sec, [B]0 = 250, Replicates 1-3
  second-order: 0.0006061 and 0.0006606 and 0.0006132
[1]; Time 5600 sec, [B]0 = 250, Replicates 1-3
  second-order: 0.0006185 and 0.0006707 and 0.0006275
[1]; Time 5781 sec, [B]0 = 250, Replicates 1-3
  second-order: 0.0006334 and 0.0006852 and 0.0006393
[1]; Time 5961 sec, [B]0 = 250, Replicates 1-3
  second-order: 0.0006459 and 0.0007024 and 0.0006549
[2]; Replicate 1, time 576 sec
  remaining [A]: 17.5091
[2]; Replicate 1, time 576 sec, [B]0 = 250
  remaining [B]: 163.389
[2]; Replicate 1, time 576 sec, second-order plot value
  second-order: 0.009306
[2]; Replicate 1, time 606 sec
  remaining [A]: 16.6256
[2]; Replicate 1, time 606 sec, [B]0 = 250
  remaining [B]: 162.506
[2]; Replicate 1, time 606 sec, second-order plot value
  second-order: 0.009623
[2]; Replicate 2, time 576 sec
  remaining [A]: 15.4999
[2]; Replicate 2, time 576 sec, [B]0=250
  remaining [B]: 162.358
[2]; Replicate 2, time 576 sec, second-order plot value
  second-order: 0.009966
[2]; Replicate 2, time 606 sec
  remaining [A]: 14.5929
[2]; Replicate 2, time 606 sec, [B]0=250
  remaining [B]: 161.451
[2]; Replicate 2, time 606 sec, second-order plot value
  second-order: 0.01034
[2]; Replicate 3, time 576 sec
  remaining [A]: 17.4849
[2]; Replicate 3, time 576 sec, [B]0=250
  remaining [B]: 162.938
[2]; Replicate 3, time 576 sec, second-order plot value
  second-order: 0.009352
[2]; Replicate 3, time 606 sec
  remaining [A]: 16.538
[2]; Replicate 3, time 606 sec, [B]0=250
  remaining [B]: 161.991
[2]; Replicate 3, time 606 sec, second-order plot value
  second-order: 0.009694
[2]; time 0 sec, [B]0 = 250, replicates 1-3
  remaining [B]: 219.942 and 218.28 and 218.112
[2]; time 0 sec, replicates 1-3
  second-order: 0.001589 and 0.00145 and 0.001561
[2]; time 30 sec, [B]0 = 250, replicates 1-3
  remaining [B]: 211.555 and 211.839 and 210.232
[2]; time 30 sec, replicates 1-3
  second-order: 0.002137 and 0.002004 and 0.001994
[2]; time 60 sec, [B]0 = 250, replicates 1-3
  remaining [B]: 204.386 and 206.139 and 202.834
[2]; time 60 sec, replicates 1-3
  second-order: 0.002738 and 0.002556 and 0.002427
[2]; time 91 sec, [B]0 = 250, replicates 1-3
  remaining [B]: 199.029 and 200.952 and 197.251
[2]; time 91 sec, replicates 1-3
  second-order: 0.003264 and 0.003029 and 0.002869
[2]; time 121 sec, [B]0 = 250, replicates 1-3
  remaining [B]: 194.402 and 196.363 and 192.97
[2]; time 121 sec, replicates 1-3
  second-order: 0.003719 and 0.003488 and 0.003307
[2]; time 151 sec, [B]0 = 250, replicates 1-3
  remaining [B]: 190.452 and 192.373 and 188.804
[2]; time 151 sec, replicates 1-3
  second-order: 0.004215 and 0.003925 and 0.003731
[2]; time 182 sec, [B]0 = 250, replicates 1-3
  remaining [B]: 186.908 and 188.84 and 185.431
[2]; time 182 sec, replicates 1-3
  second-order: 0.004663 and 0.00436 and 0.004145
[2]; time 212 sec, [B]0 = 250, replicates 1-3
  remaining [B]: 183.932 and 185.762 and 182.511
[2]; time 212 sec, replicates 1-3
  second-order: 0.005091 and 0.004762 and 0.004542
[2]; time 242 sec, [B]0 = 250, replicates 1-3
  remaining [B]: 181.254 and 182.541 and 179.734
[2]; time 242 sec, replicates 1-3
  second-order: 0.005539 and 0.005157 and 0.005
[2]; time 273 sec, [B]0 = 250, replicates 1-3
  remaining [B]: 178.711 and 180.147 and 177.239
[2]; time 273 sec, replicates 1-3
  second-order: 0.005981 and 0.005566 and 0.005372
[2]; time 303 sec, [B]0 = 250, replicates 1-3
  remaining [B]: 176.384 and 177.582 and 175.227
[2]; time 303 sec, replicates 1-3
  second-order: 0.00637 and 0.005975 and 0.005807
[2]; time 333 sec, [B]0 = 250, replicates 1-3
  remaining [B]: 174.382 and 175.53 and 173.129
[2]; time 333 sec, replicates 1-3
  second-order: 0.006811 and 0.006357 and 0.006186
[2]; time 364 sec, [B]0 = 250, replicates 1-3
  remaining [B]: 172.461 and 173.364 and 171.287
[2]; time 364 sec, replicates 1-3
  second-order: 0.007233 and 0.006753 and 0.006621
[2]; time 394 sec, [B]0 = 250, replicates 1-3
  remaining [B]: 170.756 and 171.54 and 169.7
[2]; time 394 sec, replicates 1-3
  second-order: 0.007627 and 0.007133 and 0.007019
[2]; time 424 sec, [B]0 = 250, replicates 1-3
  remaining [B]: 169.187 and 169.802 and 168.141
[2]; time 424 sec, replicates 1-3
  second-order: 0.008046 and 0.007509 and 0.00743
[2]; time 454 sec, [B]0 = 250, replicates 1-3
  remaining [B]: 167.699 and 168.519 and 166.865
[2]; time 454 sec, replicates 1-3
  second-order: 0.008415 and 0.007894 and 0.007756
[2]; time 485 sec, [B]0 = 250, replicates 1-3
  remaining [B]: 166.401 and 167.208 and 165.59
[2]; time 485 sec, replicates 1-3
  second-order: 0.008811 and 0.008254 and 0.008111
[2]; time 515 sec, [B]0 = 250, replicates 1-3
  remaining [B]: 165.237 and 165.84 and 164.371
[2]; time 515 sec, replicates 1-3
  second-order: 0.009219 and 0.008598 and 0.00851
[2]; time 545 sec, [B]0 = 250, replicates 1-3
  remaining [B]: 164.02 and 164.7 and 163.322
[2]; time 545 sec, replicates 1-3
  second-order: 0.009596 and 0.008984 and 0.008865
